Experimental findings from publication PMC4669759 (Cell Death & Disease, 2015) are described below.

This test has as its system MCL-1(3B)–BIMS(2A)ΔC complexes. Nature of the test: Live cell redistribution assay, eGFP-MCL-1(3B) and mCherry-BIMS(2A)ΔC, T-REx-293 cells. It counts as cell-based. The source says:
To further rule out potential artifacts associated with lysate detergents that can influence interactions between BCL-2 family proteins,[47] we employed a recently described real-time imaging method to assess the effects on BCL-2 family complexes in live cells.[48] Briefly, interacting pairs of BCL-2 family proteins are expressed as fluorescent fusion proteins at stoichiometric levels from a bicistronic expression module integrated into a single site of the genome in T-REx-293 cells. Under basal conditions, both proteins localize primarily to the mitochondria, where the anti-apoptotic proteins (enhanced green fluorescent protein (eGFP)-BCL-2, eGFP-BCL-XL, or eGFP-MCL-1(3B)) sequester their pro-apoptotic counterparts (mCherry-BAD or mCherry-BIMS(2A)ΔC, the latter being a specific binder of MCL-1[48], [49]). Disruption of these complexes can be tracked by measuring the amount of mCherry-labeled BH3-only protein localized specifically to the mitochondria. […]
Figure 3 A-1210477 inhibits MCL-1-BIM complexes in live cells. […] The decrease in amount of mCherry-BH3 protein localized to the mitochondria was quantified as a function of time as described in the Materials and Methods, normalized to DMSO control, and fitted to a single exponential decay. Each data point represents the mean change in intensity calculated from 10 fields of view, with error bars indicating the S.E.M. (b) T-REx-293 cells stably expressing eGFP-MCL-1(3B) and mCherry-BIMS(2A)ΔC were treated with 50 μM ABT-737 or increasing concentrations (1–25 μM) A-1210477 for 100 min. The decrease in amount of mCherry-BIMS(2A)ΔC localized to the mitochondria was quantified as in panel (a). (c) Representative fluorescence microscopic images of T-REx-293 cells stably expressing eGFP-BCL-2 family and interacting mCherry-BH3-only proteins before and after 300 min of treatment with 10 μM A-1210477 or (d) ABT-737. […]
Experiments were carried out as detailed previously.[48] […] Therefore, the entire cell was identified with a single intensity threshold applied to the eGFP fluorescence, excluding areas identified as mitochondria. […]

For the molecule `Cc1nn(C)c(COc2ccc(N3CCN(S(=O)(=O)N(C)C)CC3)cc2)c1-c1cccc2c(CCCOc3cccc4ccccc34)c(C(=O)O)n(CCN3CCOCC3)c12` [A-1210477], the “redistribution of mCherry-BIMS(2A)ΔC from mitochondria” value (T-REx-293 cells expressing MCL-1(3B)) is “induced dose-dependent redistribution of BIMS(2A)ΔC to the cytosol”. In addition, where the note is “T-REx-293 cells, 100 min”, the “lowest concentration at which BIMS(2A)ΔC redistribution could be observed” value stood at 1 µM.
